Test results: patent US20260248972A1, “DUAL RECEPTOR TARGETING RADIOLIGANDS AND USES THEREOF RELATED APPLICATIONS” (priority 2022, published 2026)
Read-outs that look alike come from different tables or passages of the source. Values belong to the compound of their own block, whether it stands above or below them.

Assays:
CCK2R = target: T1, CCK2R (Rattus norvegicus, UniProt P30553); assay: Competitive cell-binding assay on AR42J cells with 125I-C3 as competitive ligand; conditions: for IC50: AR42J cells, 125I-C3 competitive ligand, 37° C. 1 h, read-out: CCK2R/IC50
T1 construct: host or cells: AR42J cells
T1 sequence (P30553 1-452): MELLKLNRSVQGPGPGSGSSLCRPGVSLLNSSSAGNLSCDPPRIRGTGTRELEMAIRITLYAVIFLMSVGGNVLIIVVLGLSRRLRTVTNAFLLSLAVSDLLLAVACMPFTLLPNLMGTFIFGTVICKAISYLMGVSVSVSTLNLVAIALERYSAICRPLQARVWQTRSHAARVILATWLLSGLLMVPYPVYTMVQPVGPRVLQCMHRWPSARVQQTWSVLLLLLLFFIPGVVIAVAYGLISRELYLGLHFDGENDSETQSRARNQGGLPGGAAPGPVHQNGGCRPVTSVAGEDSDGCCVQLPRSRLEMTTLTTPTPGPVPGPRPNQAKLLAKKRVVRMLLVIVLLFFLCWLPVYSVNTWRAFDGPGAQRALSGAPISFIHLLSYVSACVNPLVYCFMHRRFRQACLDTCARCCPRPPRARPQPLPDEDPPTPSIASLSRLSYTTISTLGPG
Procedure: (§1) AR42J cells (ATCC) were maintained in RPMI-1640 medium (Gibco) supplemented with 15% fetal bovine serum (Gibco) and 1% penicillin-streptomycin (BI) at 37° C. in a humidified incubator with 5% CO2. The culture medium was replaced with fresh medium every 2-3 days. Experiments were performed with cells at 70-80% confluence.
(§2) Binding Affinity Tested by Using ^125I-Labeled Competitive Ligands.
(§3) The binding affinities of test compounds were determined by a competitive cell-binding assay using ^125I-C1 and ^125I-C3 as the competitive ligand. The suspended AR42J cells at a density of 1~3×10^6 cells/mL in binding buffer (RPMI-1640 medium supplemented with 0.25% bovine serum albumin) were transferred to a MultiScreen-DV Filter Plate (Millipore) with 100 μL per well except the blank group where the binding buffer was used instead. The cells were then incubated with ^125I-C1 and ^125I-C3 (0.02 μCi/well) in the presence of increasing concentrations (0-10000 nM) of test compounds at 37° C. for 1 h (n=3). The final volume in each well was maintained at 200 μL and insufficient volume was adjusted by the binding buffer. After the 1 h incubation, unbound ^125I-competitive ligands were removed by filtration using a Multiscreen vacuum manifold (Millipore) followed by rinses with the binding buffer (3 times). The filters were collected, and their radioactivity were individually measured by γ counter (2480 WIZARD2, PerkinElmer). The best-fit IC50value (inhibitory concentration when 50% of the bound ^125I-C1 and ^125l I-C3 on cells were displaced) of test compounds were calculated by fitting the data with nonlinear regression using GraphPad Prism 8.0.1.

SSTR2 = target: T2, SSTR2 (Rattus norvegicus, UniProt P30680); assay: Competitive cell-binding assay on AR42J cells with 125I-C1 as competitive ligand
T2 construct: host or cells: AR42J cells
T2 sequence (P30680 whole entry): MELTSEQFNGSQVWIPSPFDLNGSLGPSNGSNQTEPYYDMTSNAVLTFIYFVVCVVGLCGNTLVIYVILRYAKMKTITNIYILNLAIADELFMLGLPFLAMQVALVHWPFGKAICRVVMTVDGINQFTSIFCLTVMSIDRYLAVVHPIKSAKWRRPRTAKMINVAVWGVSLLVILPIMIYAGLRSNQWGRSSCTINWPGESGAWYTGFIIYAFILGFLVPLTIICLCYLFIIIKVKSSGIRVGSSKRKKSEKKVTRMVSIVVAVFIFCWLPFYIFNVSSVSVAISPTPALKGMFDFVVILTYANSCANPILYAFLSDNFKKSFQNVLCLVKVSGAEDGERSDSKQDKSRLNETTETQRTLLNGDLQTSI
Procedure: as §1, §2, §3

in vivo = conditions: BALB/c nude, mouse, in vivo, iv, total radioactivity
Summary of the method: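 Tissue uptake given as % ID and % ID/g from γ counting of organs taken 4, 24 and 72 h after injection into BALB/c nude mice carrying subcutaneous AR42J xenografts (0.05-0.50 g). Tracers were ^177Lu-labelled at 95° C for 15 min in pH 4.5 NaOAc buffer and used neat or diluted in PBS containing 3 mg/mL ascorbate.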

Compound: CCCC[C@H](NC(=O)[C@H](Cc1c[nH]c2ccccc12)NC(=O)CNC(=O)[C@H](Cc1ccc(O)cc1)NC(=O)[C@H](C)NC(=O)[C@@H](CCC(=O)O)NC(=O)[C@@H](CCC(=O)O)NC(=O)[C@@H](CCC(=O)O)NC(=O)[C@@H](CCC(=O)O)NC(=O)[C@@H](CCC(=O)O)NC(=O)[C@@H](CCC(=O)O)NC(=O)CN1CCN(CC(=O)O)CCN(CC(=O)O)CCN(CC(=O)O)CC1)C(=O)N[C@@H](CC(=O)O)C(=O)N[C@@H](Cc1ccccc1)C(N)=O [Compound C-2, DOTA-e-e-e-e-e-e-AYGW-Nle-DF-NH2, reference compound]
- IC50 (CCK2R): 17 nM
- Relative Binding Affinity CCK2R (CCK2R; based on mean IC50, C-2 = 1.00): 1.00
- Relative Binding Affinity SSTR2 (SSTR2; based on mean IC50, C-1 = 1.00): <0.001

Compound: C[C@@H](O)[C@H](NC(=O)[C@@H]1CSSC[C@H](NC(=O)[C@@H](Cc2ccccc2)NC(=O)COCCOCCNC(=O)[C@H](CCCCNC(=O)CCC(C(=O)O)N2CCN(CC(=O)O)CCN(CC(=O)O)CCN(CC(=O)O)CC2)NC(=O)COCCOCCNC(=O)c2cccc(NC(=O)N[C@@H]3CN(C4CCCCC4)c4ccccc4N(CC(=O)C(C)(C)C)C3=O)c2)C(=O)N[C@@H](Cc2ccc(O)cc2)C(=O)N[C@H](Cc2c[nH]c3ccccc23)C(=O)N[C@@H](CCCCN)C(=O)N[C@@H]([C@@H](C)O)C(=O)N1)C(=O)O (some centres unmarked) [Compound I-31, Z360- OEG- K(DOTAGA)- OEG- f[CYwKTC]T- OH]
- Relative Binding Affinity CCK2R (CCK2R): 8.8
- Relative Binding Affinity SSTR2 (SSTR2): 4.75

- Relative Binding Affinity CCK2R (CCK2R; based on mean IC50, C-2 = 1.00): 216
- Relative Binding Affinity SSTR2 (SSTR2; based on mean IC50, C-1 = 1.00): 0.10
Compound: C[C@@H](O)[C@@H]1NC(=O)[C@H](CCCCN)NC(=O)[C@@H](Cc2c[nH]c3ccccc23)NC(=O)[C@H](Cc2ccc(O)cc2)NC(=O)[C@@H](NC(=O)[C@@H](Cc2ccccc2)NC(=O)COCCOCCNC(=O)[C@H](CCCCNC(=O)[C@H](CCC(=O)O)NC(=O)c2cccc(NC(=O)N[C@@H]3CN(C4CCCCC4)c4ccccc4N(CC(=O)C(C)(C)C)C3=O)c2)NC(=O)CN2CCN(CC(=O)O)CCN(CC(=O)O)CCN(CC(=O)O)CC2)CSSC[C@@H](C(=O)N[C@H](CO)[C@@H](C)O)NC1=O [Compound I-5, DOTA-K(-E-Z360)-OEG-f[CYwKTC]-Thr(ol)]

Compound: C[C@@H](O)[C@H](NC(=O)[C@@H]1CSSC[C@H](NC(=O)[C@@H](Cc2ccccc2)NC(=O)COCCOCCNC(=O)[C@H](CCCCNC(=O)COCCOCCNC(=O)c2cccc(NC(=O)N[C@@H]3CN(C4CCCCC4)c4ccccc4N(CC(=O)C(C)(C)C)C3=O)c2)NC(=O)CN2CCN(CC(=O)O)CCN(CC(=O)O)CCN(CC(=O)O)CC2)C(=O)N[C@@H](Cc2ccc(O)cc2)C(=O)N[C@H](Cc2c[nH]c3ccccc23)C(=O)N[C@@H](CCCCN)C(=O)N[C@@H]([C@@H](C)O)C(=O)N1)C(=O)O [Compound I-43, DOTA-K(-OEG-Z360)-OEG-f[CYwKTC]T-OH]
- Relative Binding Affinity CCK2R (CCK2R): 4.0
- Relative Binding Affinity SSTR2 (SSTR2): 0.61

- Relative Binding Affinity SSTR2 (SSTR2; based on mean IC50, C-1 = 1.00): 0.51
Compound: C[C@@H](O)[C@H](NC(=O)[C@@H]1CSSC[C@H](NC(=O)[C@@H](Cc2ccccc2)NC(=O)COCCOCCNC(=O)[C@H](CCCCNC(=O)[C@H](CCC(=O)O)NC(=O)c2cccc(NC(=O)N[C@@H]3CN(C4CCCCC4)c4ccccc4N(CC(=O)C(C)(C)C)C3=O)c2)NC(=O)CN2CCN(CC(=O)O)CCN(CC(=O)O)CCN(CC(=O)O)CC2)C(=O)N[C@@H](Cc2ccc(O)cc2)C(=O)N[C@H](Cc2c[nH]c3ccccc23)C(=O)N[C@@H](CCCCN)C(=O)N[C@@H]([C@@H](C)O)C(=O)N1)C(=O)O [Compound I-27, DOTA-K(-E-Z360)-OEG-f[CYwKTC]T-OH]
- tissue to tissue ratio at 24 h (in vivo; T/K Tumor/Kidney ratio): 1.4
- tissue to tissue ratio at 24 h (in vivo; T/L Tumor/Liver ratio): 26
- tissue to tissue ratio at 24 h (in vivo; T/P Tumor/Pancreas ratio): 16
- tissue to tissue ratio at 24 h (in vivo; T/Sp Tumor/Spleen ratio): 64
- tissue to tissue ratio at 24 h (in vivo; T/St Tumor/Stomach ratio): 6.3
- tissue uptake at 24 h (in vivo; uptake Kidney): 21 %ID/g
- tissue uptake at 24 h (in vivo; uptake Liver): 1.11 %ID/g
- tissue uptake at 24 h (in vivo; uptake Pancreas): 1.79 %ID/g
- tissue uptake at 24 h (in vivo; uptake Spleen): 0.44 %ID/g
- tissue uptake at 24 h (in vivo; uptake Stomach): 4.51 %ID/g
- tissue uptake at 24 h (in vivo; uptake Tumor): 28.5 %ID/g

- IC50 (CCK2R): 9.9 nM
- Relative Binding Affinity CCK2R (CCK2R; based on mean IC50, C-2 = 1.00): 1.7
- IC50 (SSTR2; AR42J cells, 125I-C1 competitive ligand, 37° C. 1 h, read-out: SSTR2/IC50): 2.07 nM
- Relative Binding Affinity SSTR2 (SSTR2; based on mean IC50, C-1 = 1.00): 1.36
Compound: C[C@@H](O)[C@H](NC(=O)[C@@H]1CSSC[C@H](NC(=O)[C@@H](Cc2ccccc2)NC(=O)COCCOCCNC(=O)COCCOCCNC(=O)COCCOCCNC(=O)[C@H](CCCCNC(=O)c2cccc(NC(=O)N[C@@H]3CN(C4CCCCC4)c4ccccc4N(CC(=O)C(C)(C)C)C3=O)c2)NC(=O)CN2CCN(CC(=O)O)CCN(CC(=O)O)CCN(CC(=O)O)CC2)C(=O)N[C@@H](Cc2ccc(O)cc2)C(=O)N[C@H](Cc2c[nH]c3ccccc23)C(=O)N[C@@H](CCCCN)C(=O)N[C@@H]([C@@H](C)O)C(=O)N1)C(=O)O [Compound I-45, DOTA-K(Z360)-OEG-OEG-OEG-f[CYwKTC]T-OH]

- Relative Binding Affinity CCK2R (CCK2R; based on mean IC50, C-2 = 1.00): 53.1
- Relative Binding Affinity SSTR2 (SSTR2; based on mean IC50, C-1 = 1.00): 0.90
Compound: C[C@@H](O)[C@H](NC(=O)[C@@H]1CSSC[C@H](NC(=O)[C@@H](Cc2ccccc2)NC(=O)[C@H](CCCCNC(=O)[C@H](CCC(=O)O)NC(=O)c2cccc(NC(=O)N[C@@H]3CN(C4CCCCC4)c4ccccc4N(CC(=O)C(C)(C)C)C3=O)c2)NC(=O)CN2CCN(CC(=O)O)CCN(CC(=O)O)CCN(CC(=O)O)CC2)C(=O)N[C@@H](Cc2ccc(O)cc2)C(=O)N[C@H](Cc2c[nH]c3ccccc23)C(=O)N[C@@H](CCCCN)C(=O)N[C@@H]([C@@H](C)O)C(=O)N1)C(N)=O [Compound I-4, DOTA-K(-E-Z360)-f[CYwKTC]T-NH2]

- Relative Binding Affinity CCK2R (CCK2R; based on mean IC50, C-2 = 1.00): 255
- Relative Binding Affinity SSTR2 (SSTR2; based on mean IC50, C-1 = 1.00): 0.61
Compound: C[C@@H](O)[C@H](NC(=O)[C@@H]1CSSC[C@H](NC(=O)[C@@H](Cc2ccccc2)NC(=O)COCCOCCNC(=O)[C@H](CCCCNC(=O)CN2CCN(CC(=O)O)CCN(CC(=O)O)CCN(CC(=O)O)CC2)NC(=O)CC[C@H](NC(=O)COCCOCCNC(=O)CC[C@H](NC(=O)[C@H](CCC(=O)O)NC(=O)c2cccc(NC(=O)N[C@@H]3CN(C4CCCCC4)c4ccccc4N(CC(=O)C(C)(C)C)C3=O)c2)C(=O)O)C(=O)O)C(=O)N[C@@H](Cc2ccc(O)cc2)C(=O)N[C@H](Cc2c[nH]c3ccccc23)C(=O)N[C@@H](CCCCN)C(=O)N[C@@H]([C@@H](C)O)C(=O)N1)C(=O)O [Compound I-12, (Z360)-E-gE-OEG-gE-K(DOTA)-OEG-f[CYwKTC]T-OH]

- Relative Binding Affinity CCK2R (CCK2R; based on mean IC50, C-2 = 1.00): 19.7
- Relative Binding Affinity SSTR2 (SSTR2; based on mean IC50, C-1 = 1.00): 0.20
Compound: C[C@@H](O)[C@@H]1NC(=O)[C@H](CCCCN)NC(=O)[C@@H](Cc2c[nH]c3ccccc23)NC(=O)[C@H](Cc2ccc(O)cc2)NC(=O)[C@@H](NC(=O)[C@@H](Cc2ccccc2)NC(=O)[C@H](CCCCNC(=O)[C@H](CCC(=O)O)NC(=O)c2cccc(NC(=O)N[C@@H]3CN(C4CCCCC4)c4ccccc4N(CC(=O)C(C)(C)C)C3=O)c2)NC(=O)CN2CCN(CC(=O)O)CCN(CC(=O)O)CCN(CC(=O)O)CC2)CSSC[C@@H](C(=O)N[C@H](CO)[C@@H](C)O)NC1=O [Compound I-6, DOTA-K(-E-Z360)-f[CYwKTC]-Thr(ol)]

- Relative Binding Affinity CCK2R (CCK2R; based on mean IC50, C-2 = 1.00): 21.9
Compound: CC(C)(C)C(=O)CN1C(=O)[C@H](NC(=O)Nc2cccc(C(=O)N[C@@H](CCC(=O)N[C@@H](CCC(=O)N[C@@H](CCC(=O)N[C@@H](CCCCNC(=O)COCCOCCNC(=O)COCCOCCNC(=O)CCC(C(=O)O)N3CCN(CC(=O)O)CCN(CC(=O)O)CCN(CC(=O)O)CC3)C(N)=O)C(=O)O)C(=O)O)C(=O)O)c2)CN(C2CCCCC2)c2ccccc21 (some centres unmarked) [Compound C-4, Z360-gE-gE-gE-K(-OEG-OEG-DOTAGA)-NH2, reference compound]
